Laboratory results from the NIST ThermoML archive (doi:10.1021/je700015t).
± gives the expanded uncertainty stated by the source.

Conditions: 101.33 kPa, Liquid

| Structure (SMILES) | mass density (243.15 K) | mass density (253.15 K) | mass density (263.15 K) | mass density (273.15 K) | mass density (283.15 K) | mass density (298.15 K) | mass density (323.15 K) | mass density (343.15 K) | mass density (363.15 K) | mass density (383.15 K) | mass density (403.15 K) | mass density (293.15 K) | mass density (393.15 K) | mass density (423.15 K) |
| --- | --- | --- | --- | --- | --- | --- | --- | --- | --- | --- | --- | --- | --- | --- |
| CCCBr [1-bromopropane] | 1431.1 ± 1.9 kg/m3 | 1415.4 ± 1.8 kg/m3 | 1400.3 ± 1.7 kg/m3 | 1385.3 ± 1.6 kg/m3 | 1369.4 ± 1.5 kg/m3 | 1344.5 ± 1.4 kg/m3 |  |  |  |  |  |  |  |  |
| CCCCCCBr [1-bromohexane] |  | 1218 ± 1.7 kg/m3 |  | 1195.3 ± 1.5 kg/m3 | 1183.8 ± 1.3 kg/m3 | 1166.8 ± 1.3 kg/m3 | 1137.3 ± 1.5 kg/m3 | 1113.7 ± 1.6 kg/m3 | 1090.8 ± 1.8 kg/m3 | 1066.1 ± 1.9 kg/m3 | 1040.9 ± 2.1 kg/m3 |  |  |  |
| CCCCBr [1-bromobutane] |  | 1326.5 ± 1.7 kg/m3 | 1313.8 ± 1.6 kg/m3 | 1300.5 ± 1.5 kg/m3 | 1286.4 ± 1.4 kg/m3 | 1265.7 ± 1.3 kg/m3 | 1229.5 ± 1.5 kg/m3 |  |  |  |  |  |  |  |
| CCCCCBr [1-bromopentane] |  | 1260.3 ± 2 kg/m3 | 1249.9 ± 1.9 kg/m3 | 1239.6 ± 1.8 kg/m3 |  | 1208.5 ± 1.6 kg/m3 | 1177.1 ± 1.8 kg/m3 | 1151 ± 1.9 kg/m3 | 1124.7 ± 2 kg/m3 | 1097.4 ± 2.2 kg/m3 |  | 1214.9 ± 1.6 kg/m3 | 1083.4 ± 2.2 kg/m3 |  |
| CCCCCCCCCCCCBr [1-bromododecane] |  |  |  | 1056.5 ± 1.3 kg/m3 | 1048.5 ± 1.2 kg/m3 | 1035.6 ± 1.2 kg/m3 | 1014 ± 1.4 kg/m3 | 996.2 ± 1.5 kg/m3 | 979 ± 1.7 kg/m3 |  |  | 1039.8 ± 1.1 kg/m3 | 952.4 ± 1.9 kg/m3 | 923.7 ± 2.2 kg/m3 |
| CCCCCCCCBr [1-bromooctane] |  | 1151.1 ± 1.7 kg/m3 | 1140.9 ± 1.5 kg/m3 | 1131.2 ± 1.4 kg/m3 | 1121.2 ± 1.3 kg/m3 | 1106 ± 1.3 kg/m3 | 1080.6 ± 1.5 kg/m3 | 1060.5 ± 1.6 kg/m3 | 1039.5 ± 1.8 kg/m3 |  |  | 1111 ± 1.2 kg/m3 | 1008.4 ± 2 kg/m3 |  |
| CCCCCCCBr [1-bromoheptane] | 1191 ± 1.8 kg/m3 |  | 1169.6 ± 1.6 kg/m3 | 1159.2 ± 1.4 kg/m3 | 1148.7 ± 1.3 kg/m3 | 1132.9 ± 1.3 kg/m3 | 1106 ± 1.5 kg/m3 | 1084.5 ± 1.6 kg/m3 |  |  |  |  | 1026.6 ± 2 kg/m3 |  |
